Laboratory results reported in patent US20030124636A1, “Individualization of therapy with antiarrhythmics” (McGill University, priority 2001, published 2003).
Read-outs that look alike come from different tables or passages of the source. Marks after values point to notes of the source that are not given here.

Legend:
AAMU-Ab = assay: Competitive antigen ELISA, cross-reactivity of AAMU-Ab; format: binding, rabbit; settings: 0 = absence of inhibition or inhibition no higher than 40% at highest concentration tested (5 × 10^−3 M)
Procedure: (§1) Buffers and water without additives are filtered through millipore filters and kept for 1 week. BSA, antibodies, Tween™ 20 and horse radish peroxidase conjugates are added to these buffers and water just prior to use. Urine samples are usually collected 4 hours after drinking a cup of coffee (instant or brewed with approximately 100 mg of caffeine per cup) and stored at −80° C. The urine samples are diluted 10 times with sodium phosphate buffer (620 mosm, pH 7.50) and are subsequently diluted with water to give concentrations of AAMU and 1X no higher than 3×10^−6 M in the ELISA. All the pipettings are done with an eight-channel pipette, except those of the antibody and sample solutions. Starting with the last well, 100 μL of a carbonate buffer (100 mM, pH 9.6) containing 2.5 μg mL^−1 antibodies are added to each well. After 90 min. at room temperature, the wells are washed three times with […] of TPB: isotonic sodium phosphate buffer (310 mosm, pH 7.50) containing 0.05% Tween™ 20.
(§2) After the initial wash, unoccupied sites are blocked by incubation for 90 min. at room temperature with 100 μL TBP containing 3% BSA. The wells are washed four times with 100 μL TPB. […] The microplate is gently shaken with an orbital shaker at room temperature for 3-4 hours. The wells are washed three times with 100 μL TPB containing 1% BSA and three times with water containing 0.05% Tween™20. To the washed plate is added 150 μL of a substrate buffer composed of citric acid (25 mM) and sodium phosphate dibasic buffer (50 mM, pH 5.0) containing 0.06% hydrogen peroxide and 0.04% o-phenylenediamine hydrochloride.
(§3) Buffers and water without additives were filtered through millipore filters and kept for 1 week. BSA, antibodies, Tween™20 and horse radish peroxidase conjugates were added to these buffers and water just prior to use. Urine samples were usually collected 4 hours after drinking a cup of coffee (instant or brewed with approximately 100 mg of caffeine per cup) and stored at −80° C. They were diluted 10 times with sodium phosphate buffer (620 mosm, pH 7.50) and were subsequently diluted with water to give concentrations of AAMU and 1X no higher than 3×10^−6 M in the ELISA. All the pipettings were done with an eight-channel pipette, except those of the antibody and sample solutions. Starting with the last well, 100 μL of a carbonate buffer (100 mM, pH 9.6) containing 2.5 μg mL^−1 antibodies was pipetted. After 90 min. at room temperature, the wells were washed three times with 100 μL of TPB: isotonic sodium phosphate buffer (310 mosm, pH 7.50) containing 0.05% Tween™ 20.
(§4) After the initial wash, unoccupied sites were blocked by incubation for 90 min. at room temperature with 100 μL TBP containing 3% BSA. The wells were washed four times with 100 μL TPB. […] The microplate was gently shaken with an orbital shaker at room temperature for 3-4 hours. The wells were washed three times with 100 μL with TPB containing 1% BSA and three times with water containing 0.05% Tween™ 20. To the washed plate was added 150 μL of a substrate buffer composed of citric acid (25 mM) and sodium phosphate dibasic buffer (50 mM, pH 5.0) containing 0.06% hydrogen peroxide and 0.04% o-phenylenediamine hydrochloride. After 20 min. at room temperature with shaking, the reaction was stopped with 50 μL of 2.5 N HCl.
(§5) The cross reactivities of AAMU-Ab and 1X-Ab were tested using a wide variety of caffeine metabolites and structural analogs (Table 2 below).

1X-Ab = assay: Competitive antigen ELISA, cross-reactivity of 1X-Ab; format: binding, rabbit; settings: 0 = absence of inhibition or inhibition no higher than 40% at highest concentration tested (5 × 10^−3 M)
Procedure: as §1, §2, §3, §4, §5

[1] = cited from earlier work

In the case of `Cn1c(=O)c2c(ncn2C)n(C)c1=O` [1,3,7-Trimethyl Xanthine (Caffeine), 1,3,7-Trimethyl Xanthine], the “% Cross-Reaction AAMU-Ab” value (AAMU-Ab) is reported as 0% and the “% Cross-Reaction 1X-Ab” value (1X-Ab) is reported as 0%.

For `Cn1c(=O)c2[nH]cnc2n(C)c1=O` [1,3-Dimethyl Xanthine (Theophylline), 1,3-Dimethyl Xanthine], the “% Cross-Reaction AAMU-Ab” value (AAMU-Ab) was 0% and the “% Cross-Reaction 1X-Ab” value (1X-Ab) was 0.2%.

In the case of `Cn1c(=O)[nH]c2ncn(C)c2c1=O` [1,7-Dimethyl Xanthine (Paraxanthine), 1,7-Dimethyl Xanthine], the “% Cross-Reaction AAMU-Ab” value (AAMU-Ab) is reported as 0% and the “% Cross-Reaction 1X-Ab” value (1X-Ab) is reported as 0.5%.

For `Cn1c(=O)[nH]c2[nH]c(=O)n(C)c2c1=O` [1,7-Dimethyluric acid], the “% Cross-Reaction AAMU-Ab” value (AAMU-Ab) was 0% and the “% Cross-Reaction 1X-Ab” value (1X-Ab) was 0%.

In the case of `Cn1c(=O)[nH]c2nc[nH]c2c1=O` [1-Methyl Xanthine (1X), 1-Methyl Xanthine], the “% Cross-Reaction AAMU-Ab” value (AAMU-Ab) is reported as 0% and the “% Cross-Reaction 1X-Ab” value (1X-Ab) is reported as 100%.

With `Cn1c(=O)[nH]c2[nH]c(=O)[nH]c2c1=O` [1-Methyluric acid] the “% Cross-Reaction AAMU-Ab” value (AAMU-Ab) was 0% and the “% Cross-Reaction 1X-Ab” value (1X-Ab) was 11%.

For `Cn1cnc2c1c(=O)[nH]c(=O)n2C` [3,7-Dimethyl Xanthine (Theobromine), 3,7-Dimethyl Xanthine], the “% Cross-Reaction AAMU-Ab” value (AAMU-Ab) was 0% and the “% Cross-Reaction 1X-Ab” value (1X-Ab) was 0%.

In the case of `Cn1c(=O)[nH]c(=O)c2[nH]cnc21` [3-Methyl Xanthine], the “% Cross-Reaction AAMU-Ab” value (AAMU-Ab) is reported as 0% and the “% Cross-Reaction 1X-Ab” value (1X-Ab) is reported as 0%.

With `CC(=O)Nc1c(N)n(C)c(=O)n(C)c1=O` [5-Acetamino-6-amino-1,3-dimethyluracil] the “% Cross-Reaction AAMU-Ab” value (AAMU-Ab) was 0% and the “% Cross-Reaction 1X-Ab” value (1X-Ab) was 0%.

In the case of `CC(=O)Nc1c(N)n(C)c(=O)[nH]c1=O` [5-Acetamino-6-amino-1-methyluracil], the “% Cross-Reaction AAMU-Ab” value (AAMU-Ab) is reported as 100% and the “% Cross-Reaction 1X-Ab” value (1X-Ab) is reported as 0%.

In the case of `CC(=O)Nc1c(N)[nH]c(=O)[nH]c1=O` [5-Acetamino-6-amino-uracil], the “% Cross-Reaction AAMU-Ab” value (AAMU-Ab) is reported as 0.6% and the “% Cross-Reaction 1X-Ab” value (1X-Ab) is reported as 0%.

For `Cn1cnc2[nH]c(=O)[nH]c(=O)c21` [7-Methyl Xanthine], the “% Cross-Reaction AAMU-Ab” value (AAMU-Ab) was 0% and the “% Cross-Reaction 1X-Ab” value (1X-Ab) was 0%.

With `Cc1nc2[nH]c(=O)[nH]c(=O)c2[nH]1` [8-Methyl Xanthine] the “% Cross-Reaction AAMU-Ab” value (AAMU-Ab) was 0% and the “% Cross-Reaction 1X-Ab” value (1X-Ab) was 0%.

In the case of `Nc1nc2nc[nH]c2c(=O)[nH]1` [Guanine], the “% Cross-Reaction AAMU-Ab” value (AAMU-Ab) is reported as 0% and the “% Cross-Reaction 1X-Ab” value (1X-Ab) is reported as 0%.

In the case of `O=c1[nH]cnc2nc[nH]c12` [Hypoxanthine], the “% Cross-Reaction AAMU-Ab” value (AAMU-Ab) is reported as 0% and the “% Cross-Reaction 1X-Ab” value (1X-Ab) is reported as 0%.

In the case of `O=c1cc[nH]c(=O)[nH]1` [Uracil], the “% Cross-Reaction AAMU-Ab” value (AAMU-Ab) is reported as 0% and the “% Cross-Reaction 1X-Ab” value (1X-Ab) is reported as 0%.

In the case of `O=c1[nH]c(=O)c2[nH]c(=O)[nH]c2[nH]1` [Uric acid], the “% Cross-Reaction AAMU-Ab” value (AAMU-Ab) is reported as 0% and the “% Cross-Reaction 1X-Ab” value (1X-Ab) is reported as 0%.

With `O=c1[nH]c(=O)c2[nH]cnc2[nH]1` [Xanthine] the “% Cross-Reaction AAMU-Ab” value (AAMU-Ab) was 0^a % and the “% Cross-Reaction 1X-Ab” value (1X-Ab) was 0%.

In the case of `Nc1ccc(S(=O)(=O)c2ccc(N)cc2)cc1` [dapsone], the “adverse reactions to dapsone” value ([1]; fast acetylators) is listed as 17% and the “adverse reactions to dapsone” value ([1]; slow acetylators) is listed as 46%.
